Measurements reported in publication PMC5384453, “A multi-functional PEGylated gold(III) compound: potent anti-cancer properties and self-assembly into nanostructures for drug co-delivery” (Chemical Science, 2016).

Key:
HCT116 cells [1] = assay: Flow cytometric analysis of apoptosis with propidium iodide co-staining (Fig. S14, S15); type: cell-based, human; settings: HCT116, 2 μM
Experimental: with gold(III) complexes and FITC-annexin V staining. HCT116 (1×10 5 cells) and […]
annexin-binding buffer solution. The cells were then incubated with FITC-annexin V […]
at room temperature in dark for 15 min. The solution was then removed, and the cells were washed with annexin-binding buffer solution. Fluorescence images were then […]
in ice and analyzed by flow cytometry immediately. […]
staining and flow cytometry. […]
atmosphere of 5% CO2. After reaching 80% confluency, the culture medium was […]
of 5% CO2 for 45 min. The solution was then removed. The stained NCM460 cells […]
the procedure described above. […]
(§1) right fore of BALB/c nude mice. When the tumor volume reached 70 mm3 after […]
propidium iodide staining. (b) Flow cytometric analysis of NCM460 […]
annexin V and propidium iodide staining. (c) Flow cytometric analysis […]
annexin V and propidium iodide staining.

HCT116 cells [2] = assay: Co-culture model of HCT116 and NCM460, FITC-Annexin V flow cytometry; type: cell-based, human; settings: HCT116 in co-culture with CMF2HC-stained NCM460, 2 μM, 24 h
Experimental: (§2) To further verify the ability of 1 to selectively induce apoptosis of HCT116 cells over NCM460 cells, HCT116 and NCM460 cells were co-cultured and incubated with 1 for 24 h, and then stained with FITC-Annexin V and propidium iodide. In order to differentiate the two different cell lines, NCM460 cells were pre-treated with blue-emissive CMF2HC dye prior to its co-culture with HCT116 cells. […] In a parallel experiment, co-cultured cells treated with 1 for 24 h and stained with FITC-Annexin V and propidium iodide were imaged by fluorescence microscopy (Fig. 4a). Green and red fluorescence were primarily observed in cells without showing blue luminescence, i.e. HCT116 cells. […] The results of both the fluorescence microscopy and flow cytometry support the high selectivity of 1 on killing colon cancer cells in the co-culture model of cancer and normal cells.
(§3) atmosphere of 5% CO2. After reaching 80% confluency, the culture medium was
(§4) of 5% CO2 for 45 min. The solution was then removed. The stained NCM460 cells
(§5) the procedure described above.
as §1

NCM460 cells = assay: as above; type: cell-based, human; settings: CMF2HC-stained NCM460 in co-culture with HCT116, 2 μM, 24 h
Experimental: as §2, §3, §4, §5, §1

A2780cis xenografts = assay: In vivo inhibition of tumor growth in nude mice bearing A2780cis xenograft
Experimental: To further investigate the ability of 1 to treat drug-resistant tumors that should be of great interest in clinical application, in vivo antitumor experiments on nude mice bearing cisplatin-resistant A2780cis xenografts with 1 were conducted. […]
every 2 days for 24 days. The control group received equal volume of PBS only.
During the treatment period, the tumor volume and body weight of the nude mice were measured per two days. The tumor volume was calculated by the equation:
Volume (mm3) = l×w2/2, where l and w were the length and width of the tumor. At the end of the treatment, the nude mice were sacrificed and the tumor weight was […]
H&E staining and immunohistochemical (IHC) analysis of mice tissues. […] The expression of p53, Ki67, VEGFR2 and TUNEL was determined by IHC methods as reported previously. […]
animal study. […] During the treatment period, the tumor volume and body weight of the nude mice were measured […]
once every 2–3 days. The tumor volume was calculated by the equation: Volume (mm3) = l×w2/2, where l and w were the length and width of the tumor. At the end of the treatment, the nude mice were sacrificed and the tumor weight was measured. […]
of apoptosis of HCT116 cells was investigated by CellEvent Caspase-3/7 Green ReadyProbes Reagent (30 µL), similar to the procedure of the experiments on gold(III) […]

[Au(TPP–COO–PEG5000–OCH3)]Cl [Compound 1]
apoptotic cells (Q4 region, corrected) (HCT116 cells [1]; 24 h): 35.83%
late apoptotic events (Q2 region, corrected) (HCT116 cells [1]; 24 h): 1.96%
apoptotic cells (Q4 region, corrected) (HCT116 cells [1]; 36 h): 43.83%
late apoptotic events (Q2 region, corrected) (HCT116 cells [1]; 36 h): 10.6%
cells undergoing apoptosis (FITC-Annexin V, corrected) (HCT116 cells [2]): 20.6%
cells undergoing apoptosis (FITC-Annexin V, corrected) (NCM460 cells): 1.87%
reduction of tumor volume (A2780cis xenografts; 4 mg kg^–1, intravenous injections every 2–3 days for 13 days, n = 5): Over 52%
mouse death / body weight (A2780cis xenografts; A2780cis xenograft nude mice, 4 mg kg^–1 i.v., 13 days): no mouse death or significant loss in body weight
